From the supplement of paper PMC9663587

compound: CC(=O)c1c(C)c2cnc(Nc3ccc(N4CCN(CCOCCOCCOCCNC(=O)COc5cccc6c5C(=O)N(C5CCC(=O)NC5=O)C6=O)CC4)cn3)nc2n(C2CCCC2)c1=O [BSJ-03-123]; experiment: increase in dead-cell fraction, 72 h; higher = more death; conditions: 10 µM;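 also: breast cancer cell lines in 384-well plates, stained with Hoechst plus LIVE/DEAD far red dye and imaged, cells above an LDR intensity threshold counted dead, Hoechst-negative corpses included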

| Cell Line | increase in dead-cell fraction |
| --- | --- |
| MDAMB175VII | 0.0139 |

compound: CN(C)C/C=C/C(=O)Nc1ccc(C(=O)Nc2cccc(Nc3ncc(Cl)c(-c4c[nH]c5ccccc45)n3)c2)cc1 [THZ1]; experiment: as above; conditions: 0.0001 µM

| Cell Line | increase in dead-cell fraction |
| --- | --- |
| HTERT_HME1 | -0.0026 |
| MCF7 | -0.0005 |
| MCF10A | -0.0014 |
| MCF12A | 0 |
| MDAMB175VII | 0.0012 |

same assay, conditions: 0.0003162 µM

| Cell Line | increase in dead-cell fraction |
| --- | --- |
| HTERT_HME1 | 0.0021 |
| MCF7 | 0.0028 |
| MCF10A | 0.0002 |
| MCF12A | -0.007 |
| MDAMB175VII | -0.0011 |

same assay, conditions: 0.001 µM

| Cell Line | increase in dead-cell fraction |
| --- | --- |
| HTERT_HME1 | 0.0031 |
| MCF7 | 0.0017 |
| MCF10A | 0.0012 |
| MCF12A | 0.0031 |
| MDAMB175VII | -0.0032 |

same assay, conditions: 0.003162 µM

| Cell Line | increase in dead-cell fraction |
| --- | --- |
| HTERT_HME1 | 0.0375 |
| MCF7 | 0.0005 |
| MCF10A | -0.0011 |
| MCF12A | 0.0056 |
| MDAMB175VII | -0.0005 |

same assay, conditions: 0.01 µM

| Cell Line | increase in dead-cell fraction |
| --- | --- |
| HTERT_HME1 | 0.292 |
| MCF7 | 0.0078 |
| MCF10A | -0.0007 |
| MCF12A | 0.0015 |
| MDAMB175VII | 0.0034 |

same assay, conditions: 0.03162 µM

| Cell Line | increase in dead-cell fraction |
| --- | --- |
| HTERT_HME1 | 0.545 |
| MCF7 | 0.0606 |
| MCF10A | 0.0074 |
| MCF12A | 0.0071 |
| MDAMB175VII | 0.0153 |

same assay, conditions: 0.1 µM

| Cell Line | increase in dead-cell fraction |
| --- | --- |
| HTERT_HME1 | 0.528 |
| MCF7 | 0.196 |
| MCF10A | 0.0416 |
| MCF12A | 0.0475 |
| MDAMB175VII | 0.0349 |

same assay, conditions: 0.3162 µM

| Cell Line | increase in dead-cell fraction |
| --- | --- |
| HTERT_HME1 | 0.548 |
| MCF7 | 0.176 |
| MCF10A | 0.0884 |
| MCF12A | 0.127 |
| MDAMB175VII | 0.0573 |

same assay, conditions: 1 µM

| Cell Line | increase in dead-cell fraction |
| --- | --- |
| HTERT_HME1 | 0.71 |
| MCF7 | 0.338 |
| MCF10A | 0.642 |
| MCF12A | 0.697 |
| MDAMB175VII | 0.0912 |

compound: CCc1cnn2c(NCc3ccc[n+]([O-])c3)cc(N3CCCC[C@H]3CCO)nc12; experiment: as above; conditions: 0.0001 µM

| Cell Line | increase in dead-cell fraction |
| --- | --- |
| HTERT_HME1 | -0.0004 |
| MCF7 | 0.0003 |
| MCF10A | 0.0013 |
| MCF12A | -0.0058 |
| MDAMB175VII | -0.004 |

same assay, conditions: 0.0003162 µM

| Cell Line | increase in dead-cell fraction |
| --- | --- |
| HTERT_HME1 | -0.0019 |
| MCF7 | -0.0006 |
| MCF10A | 0.0005 |
| MCF12A | 0.0036 |
| MDAMB175VII | -0.0015 |

same assay, conditions: 0.001 µM

| Cell Line | increase in dead-cell fraction |
| --- | --- |
| HTERT_HME1 | 0.0008 |
| MCF7 | -0.0004 |
| MCF10A | 0.0001 |
| MCF12A | 0.0056 |
| MDAMB175VII | -0.0018 |

same assay, conditions: 0.003162 µM

| Cell Line | increase in dead-cell fraction |
| --- | --- |
| HTERT_HME1 | 0.0059 |
| MCF7 | 0.0012 |
| MCF10A | 0.0053 |
| MCF12A | -0.0029 |
| MDAMB175VII | -0.0039 |

same assay, conditions: 0.01 µM

| Cell Line | increase in dead-cell fraction |
| --- | --- |
| HTERT_HME1 | 0.0263 |
| MCF7 | 0.0757 |
| MCF10A | 0.0077 |
| MCF12A | 0.0006 |
| MDAMB175VII | 0.001 |

same assay, conditions: 0.03162 µM

| Cell Line | increase in dead-cell fraction |
| --- | --- |
| HTERT_HME1 | 0.571 |
| MCF7 | 0.319 |
| MCF10A | 0.5 |
| MCF12A | 0.0291 |
| MDAMB175VII | 0.116 |

same assay, conditions: 0.1 µM

| Cell Line | increase in dead-cell fraction |
| --- | --- |
| HTERT_HME1 | 0.558 |
| MCF7 | 0.272 |
| MCF10A | 0.575 |
| MCF12A | 0.541 |
| MDAMB175VII | 0.0618 |

same assay, conditions: 0.3162 µM

| Cell Line | increase in dead-cell fraction |
| --- | --- |
| HTERT_HME1 | 0.535 |
| MCF7 | 0.225 |
| MCF10A | 0.559 |
| MDAMB175VII | 0.0494 |

same assay, conditions: 1 µM

| Cell Line | increase in dead-cell fraction |
| --- | --- |
| HTERT_HME1 | 0.511 |
| MCF7 | 0.229 |
| MCF10A | 0.523 |
| MCF12A | 0.517 |
| MDAMB175VII | 0.0562 |

compound: CN1CC[C@H](c2c(O)cc(O)c3c(=O)cc(-c4ccccc4Cl)oc23)[C@H](O)C1 [Flavopiridol]; experiment: as above; conditions: 0.0001 µM

| Cell Line | increase in dead-cell fraction |
| --- | --- |
| HTERT_HME1 | -0.0184 |
| MCF7 | -0.0023 |
| MCF10A | 0.0016 |
| MCF12A | 0.0046 |
| MDAMB175VII | -0.0018 |

same assay, conditions: 0.0003162 µM

| Cell Line | increase in dead-cell fraction |
| --- | --- |
| HTERT_HME1 | -0.0042 |
| MCF7 | 0.0009 |
| MCF10A | 0 |
| MCF12A | 0.0087 |
| MDAMB175VII | -0.0019 |

same assay, conditions: 0.001 µM

| Cell Line | increase in dead-cell fraction |
| --- | --- |
| HTERT_HME1 | 0.0033 |
| MCF7 | 0.0003 |
| MCF10A | -0.0007 |
| MCF12A | 0.0086 |
| MDAMB175VII | 0.0003 |

same assay, conditions: 0.003162 µM

| Cell Line | increase in dead-cell fraction |
| --- | --- |
| HTERT_HME1 | 0.0052 |
| MCF7 | 0.0007 |
| MCF10A | -0.0005 |
| MCF12A | 0.0003 |
| MDAMB175VII | 0.0018 |

same assay, conditions: 0.01 µM

| Cell Line | increase in dead-cell fraction |
| --- | --- |
| HTERT_HME1 | 0.0001 |
| MCF7 | 0.0049 |
| MCF10A | 0 |
| MCF12A | -0.0016 |
| MDAMB175VII | 0.0067 |

same assay, conditions: 0.03162 µM

| Cell Line | increase in dead-cell fraction |
| --- | --- |
| HTERT_HME1 | 0.007 |
| MCF7 | 0.0017 |
| MCF10A | 0.0039 |
| MCF12A | 0.0044 |
| MDAMB175VII | -0.0026 |

same assay, conditions: 0.1 µM

| Cell Line | increase in dead-cell fraction |
| --- | --- |
| HTERT_HME1 | 0.051 |
| MCF7 | 0.0144 |
| MCF10A | 0.0255 |
| MCF12A | 0.0096 |
| MDAMB175VII | 0.0081 |

same assay, conditions: 0.3162 µM

| Cell Line | increase in dead-cell fraction |
| --- | --- |
| HTERT_HME1 | 0.183 |
| MCF7 | 0.257 |
| MCF10A | 0.407 |
| MCF12A | 0.0302 |
| MDAMB175VII | 0.0294 |

same assay, conditions: 1 µM

| Cell Line | increase in dead-cell fraction |
| --- | --- |
| HTERT_HME1 | 0.577 |
| MCF7 | 0.183 |
| MCF10A | 0.87 |
| MCF12A | 0.479 |
| MDAMB175VII | 0.0685 |
